Data taken from patent US11505558B1, “Antiviral heterocyclic compounds” (Enanta Pharmaceuticals, Inc., priority 2019, dated 2022).

Test system: genotype A, "Long" strain RSV
Assay: RSV-A assay (CPE, ATPlite readout in Hep-2 cells)
Type: cell-based
Settings: human respiratory syncytial virus, HEp-2, Hep-2 cells, genotype A "Long" strain RSV, MOI 0.1; read-out: Human RSV-A (“Long” strain) EC50
Summary of the method: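 Hep-2 cells (8,000/well) received 2-fold serial compound dilutions in duplicate and RSV Long strain at MOI 0.1. After 5 days' incubation, cell health was read as ATP by ATPlite luminescence, with virus-only and uninfected controls defining max and minimum CPE; EC50 reported.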

Row | Structure (SMILES) | EC50 [nM]
1 | C[C@]1(C(N)=O)COc2c1cc([C@@](O)(CNC(=O)c1cc(Nc3ccccn3)c3ncccc3c1)C(F)(F)F)nc2-c1ccc(F)cc1 [Example 338] | < 200
2 | COc1cc(C(=O)NC[C@](O)(c2cc3c(c(-c4ccc(F)cc4)n2)OC[C@@]3(C)C(N)=O)C(F)(F)F)ccc1OCCF [Example 317] | > 200
3 | COc1cc(C(=O)NC[C@](O)(c2cc3c(c(-c4ccc(F)cc4)n2)OC[C@]3(C)C(=O)NCC2CC2)C(F)(F)F)cc2cccnc12 [Example 50] | < 200
4 | COc1cc(C(=O)NC[C@](O)(c2cc3c(c(-c4ccc(F)cc4)n2)OC[C@]3(C)CNCC2CC2)C(F)(F)F)ccc1OC1CC1 [Example 18] | < 200
5 | CC(C)(C)NC(=O)[C@@]1(C)COc2c1cc([C@@](O)(CNC(=O)c1cc(OC3CC3)c3ncccc3c1)C(F)(F)F)nc2-c1ccc(F)cc1 [Example 453] | < 200
6 | Cc1ncc(-c2ccc(C(=O)NC[C@](O)(c3cc4c(c(-c5ccc(F)cc5)n3)OC[C@]4(C)C(N)=O)C(F)(F)F)cc2OC2CC2)s1 [Example 176] | > 200
7 | C[C@]1(C(N)=O)COc2c1cc([C@@](O)(CNC(=O)c1ccc3[nH]ccc3c1)C(F)(F)F)nc2-c1ccc(F)cc1 [Example 311] | < 200
8 | CC(C)(C)OC(=O)NCCOc1cc(C(=O)NC[C@](O)(c2cc3c(c(-c4ccc(F)cc4)n2)OC[C@]3(C)C(N)=O)C(F)(F)F)cc2cccnc12 [Example 355] | > 200
9 | COc1cc(OC)c2cc(C(=O)NC[C@](O)(c3cc4c(c(-c5ccc(F)cc5)n3)OC[C@]4(C)C(N)=O)C(F)(F)F)[nH]c2c1 [Example 332] | < 200
10 | CNc1cc(C(=O)NC[C@](O)(c2cc3c(c(-c4ccc(F)cc4)n2)OC[C@]3(C)C(N)=O)C(F)(F)F)cc2cccnc12 [Example 385] | < 200
11 | COc1cc(C(=O)NC[C@](O)(c2cc3c(c(-c4ccc(F)cc4)n2)OC[C@]3(C)C(N)=O)C(F)(F)F)ccc1OCCF [Example 68] | < 200
12 | C[C@]1(C(N)=O)COc2c1cc([C@@](O)(CNC(=O)c1ccc(-c3cccnc3)c(OC3CC3)c1)C(F)(F)F)nc2-c1ccc(F)cc1 [Example 141] | < 200
13 | COc1cc(C(=O)NC[C@](O)(c2cc3c(c(-c4ccc(F)cc4)n2)OC[C@]3(C)C(N)=O)C2CC2)cc2cccnc12 [Example 249] | < 200
14 | COc1cc(C(=O)NC[C@](O)(c2cc3c(c(C#Cc4cc(F)c(F)c(F)c4)n2)OC[C@]3(C)C(N)=O)C(F)(F)F)ccc1OC1CC1 [Example 511] | > 200
15 | COc1cc(C(=O)NC[C@](O)(c2cc3c(c(-c4ccc(Cl)c(F)c4)n2)OC[C@]3(C)C(N)=O)C(F)(F)F)cc2cc(C)cnc12 [Example 260] | < 200
16 | C[C@]1(C(N)=O)COc2c1cc([C@@](O)(CNC(=O)c1cc(F)c3nc(N)sc3c1)C(F)(F)F)nc2-c1ccc(F)cc1 [Example 443] | < 200
17 | COc1nccc2cc(C(=O)NC[C@](O)(c3cc4c(c(-c5ccc(F)cc5)n3)OC[C@]4(C)C(N)=O)C(F)(F)F)ccc12 [Example 362] | > 200
18 | Cc1cccc(-c2cc(C(=O)NC[C@](O)(c3cc4c(c(-c5ccc(F)cc5)n3)OC[C@]4(C)C(N)=O)C(F)(F)F)ccc2OC2CC2)n1 [Example 109] | < 200
19 | C[C@]1(C(N)=O)COc2c1cc([C@@](O)(CNC(=O)c1cc(NC(=O)c3cnn[nH]3)c3ncccc3c1)C(F)(F)F)nc2-c1ccc(F)cc1 [Example 404] | > 200

Row | Structure (SMILES) | EC50 [nM]
20 | CC(=O)NCCOc1cc(C(=O)NC[C@](O)(c2cc3c(c(-c4ccc(F)cc4)n2)OC[C@]3(C)C(N)=O)C(F)(F)F)cc2cccnc12 [Example 357] | > 200
21 | C[C@]1(C(N)=O)COc2c1cc([C@@](O)(CNC(=O)c1cc(O)c3nc(C(F)(F)F)ccc3c1)C(F)(F)F)nc2-c1ccc(F)cc1 [Example 227] | > 200
22 | Cc1ncccc1-c1ccc(C(=O)NC[C@](O)(c2cc3c(c(-c4ccc(F)cc4)n2)OC[C@]3(C)C(N)=O)C(F)(F)F)cc1OC1CC1 [Example 144] | > 200
23 | C[C@]1(C(N)=O)COc2c1cc([C@@](O)(CNC(=O)c1ccc(OC3CC3)c(-c3ccccc3)c1)C(F)(F)F)nc2-c1ccc(F)cc1 [Example 77] | < 200
24 | Cc1n[nH]c2ccc(C(=O)NC[C@](O)(c3cc4c(c(-c5ccc(F)cc5)n3)OC[C@]4(C)C(N)=O)C(F)(F)F)cc12 [Example 658] | < 200
25 | COc1cc(C(=O)NC[C@](O)(c2cc3c(c(-c4ccc(C)cc4)n2)OC[C@]3(C)C(N)=O)C(F)(F)F)cc2cc(C)cnc12 [Example 259] | < 200
26 | Cc1noc(C)c1-c1cc(C(=O)NC[C@](O)(c2cc3c(c(-c4ccc(F)cc4)n2)OC[C@]3(C)C(N)=O)C(F)(F)F)ccc1OC1CC1 [Example 121] | > 200
27 | COc1cc(C(=O)NC[C@](O)(c2cc3c(c(-c4ccc(F)cc4)n2)OC[C@]3(C)C(N)=O)C(F)(F)F)cc2c1NC(=O)CC2 [Example 60] | < 200
28 | Cc1ccc2cc(C(=O)NC[C@](O)(c3cc4c(c(-c5ccc(F)cc5)n3)OC[C@]4(C)C(N)=O)C(F)(F)F)cc(N3CCCC3=O)c2n1 [Example 652] | > 200
29 | C[C@]1(C(N)=O)COc2c1cc([C@@](O)(CNC(=O)c1ccc(OC3CC3)c(-c3cscn3)c1)C(F)(F)F)nc2-c1ccc(F)cc1 [Example 128] | < 200
30 | C[C@]1(C(N)=O)COc2c1cc([C@@](O)(CNC(=O)c1ccc(OC3CC3)c(-c3ccncc3C(F)(F)F)c1)C(F)(F)F)nc2-c1ccc(F)cc1 [Example 113] | > 200
31 | CCOc1ccc2[nH]c(C(=O)NC[C@](O)(c3cc4c(c(-c5ccc(F)cc5)n3)OC[C@]4(C)C(N)=O)C(F)(F)F)cc2c1 [Example 297] | > 200
32 | COc1cc(C(=O)NC[C@](O)(c2cc3c(c(-c4ccc(F)cc4)n2)OC[C@]3(C)C(=O)NCC2(C)CC2)C(F)(F)F)cc2cccnc12 [Example 76] | < 200
33 | C[C@]1(C(N)=O)COc2c1cc([C@@](O)(CNC(=O)c1cc(Nc3ccnnc3)c3ncccc3c1)C(F)(F)F)nc2-c1ccc(F)cc1 [Example 348] | < 200
34 | Cc1cnc2c(S(C)(=O)=O)cc(C(=O)NC[C@](O)(c3cc4c(c(-c5ccc(F)cc5)n3)OC[C@]4(C)C(N)=O)C(F)(F)F)cc2c1 [Example 648] | < 200
35 | COc1cc(C(=O)NC[C@](C)(O)c2cc3c(c(-c4ccc(F)cc4)n2)OC[C@]3(C)C(N)=O)ccc1OC[C@@H](C)O [Example 264] | < 200
36 | COc1cc(C(=O)NC[C@](O)(c2cc3c(c(-c4ccc(F)cc4)n2)OC[C@]3(C)C(N)=O)C(F)(F)F)ccc1-c1cnoc1 [Example 184] | < 200
37 | C[C@]1(C(N)=O)COc2c1cc([C@@](O)(CNC(=O)c1cc3cccnc3cc1Cl)C(F)(F)F)nc2-c1ccc(F)cc1 [Example 241] | > 200
38 | COc1cc(C(=O)NC[C@](O)(c2cc3c(c(-c4ccc(F)cc4)n2)OC[C@]3(C)CNC2CC2)C(F)(F)F)ccc1OCCO [Example 3] | < 200

Row | Structure (SMILES) | EC50 [nM]
39 | Cc1cc(-c2nc([C@@](O)(CNC(=O)c3ccc4nc(N)sc4c3)C(F)(F)F)cc3c2OC[C@]3(C)C(=O)NCC(C)(C)O)ccc1F [Example 505] | < 200
40 | C[C@]1(C(N)=O)COc2c1cc([C@@](O)(CNC(=O)c1cc(OC3(C(N)=O)CC3)c3ncccc3c1)C(F)(F)F)nc2-c1ccc(F)cc1 [Example 381] | > 200
41 | C[C@]1(C(N)=O)COc2c1cc([C@@](O)(CNC(=O)c1cc(Oc3ncccn3)c3ncccc3c1)C(F)(F)F)nc2-c1ccc(F)cc1 [Example 614] | > 200
42 | Cc1cnc2c(O)cc(C(=O)NC[C@](O)(c3cc4c(c(-c5ccc(F)c(Cl)c5)n3)OC[C@]4(C)C(N)=O)C(F)(F)F)cc2c1 [Example 253] | < 200
43 | COc1cc(C(=O)NC[C@](O)(c2cc3c(c(-c4ccc(F)cc4)n2)OC[C@]3(C)CNC(=O)C2CC2)C(F)(F)F)ccc1OCCO [Example 9] | < 200
44 | CC(C)(O)CNC(=O)[C@@]1(C)COc2c1cc([C@@](O)(CNC(=O)c1ccc3nc(N)sc3c1)C(F)(F)F)nc2-c1ccc(F)c(Cl)c1 [Example 500] | < 200
45 | C[C@]1(C(N)=O)COc2c1cc([C@@](O)(CNC(=O)c1cc(N)c3ncccc3c1)C(F)(F)F)nc2-c1ccc(F)cc1 [Example 279] | < 200
46 | COc1cccc2cc(C(=O)NC[C@](O)(c3cc4c(c(-c5ccc(F)cc5)n3)OC[C@]4(C)C(N)=O)C(F)(F)F)[nH]c12 [Example 603] | > 200
47 | C[C@]1(C(N)=O)COc2c1cc([C@@](O)(CNC(=O)c1cn3ncccc3n1)C(F)(F)F)nc2-c1ccc(F)cc1 [Example 307] | > 200
48 | C[C@]1(C(N)=O)COc2c1cc([C@@](O)(CNC(=O)c1ccc3ncc(C4CC4)cc3c1)C(F)(F)F)nc2-c1ccc(F)cc1 [Example 525] | < 200
49 | C[C@]1(C(N)=O)COc2c1cc([C@@](O)(CNC(=O)c1ccc(-c3cnc(C4CC4)nc3)c(OC3CC3)c1)C(F)(F)F)nc2-c1ccc(F)cc1 [Example 165] | > 200
50 | C[C@]1(C(N)=O)COc2c1cc([C@@](O)(CNC(=O)c1ccc(-c3cnccn3)c(OC3CC3)c1)C(F)(F)F)nc2-c1ccc(F)cc1 [Example 166] | < 200
51 | Cc1cnc2c(NC(=O)NNCC(C)(C)O)cc(C(=O)NC[C@](O)(c3cc4c(c(-c5ccc(F)cc5)n3)OC[C@]4(C)C(N)=O)C(F)(F)F)cc2c1 [Example 632] | < 200
52 | C[C@]1(C(N)=O)COc2c1cc([C@@](O)(CNC(=O)c1ccc(-c3cocn3)c(OC3CC3)c1)C(F)(F)F)nc2-c1ccc(F)cc1 [Example 198] | < 200
53 | COc1ccc(CC(=O)NC[C@](O)(c2cc3c(c(-c4ccc(F)cc4)n2)OC[C@]3(C)C(N)=O)C(F)(F)F)cc1 [Example 593] | > 200
54 | CC(Oc1cc(C(=O)NC[C@](O)(c2cc3c(c(-c4ccc(F)cc4)n2)OC[C@]3(C)C(N)=O)C(F)(F)F)cc2cccnc12)C(N)=O (some centres unmarked) [Example 383] | > 200
55 | Cc1nocc1-c1ccc(C(=O)NC[C@](O)(c2cc3c(c(-c4ccc(F)cc4)n2)OC[C@]3(C)C(N)=O)C(F)(F)F)cc1OC1CC1 [Example 181] | < 200
56 | C[C@]1(C(N)=O)COc2c1cc([C@@](O)(CNC(=O)c1ccc3ccncc3c1)C(F)(F)F)nc2-c1ccc(F)cc1 [Example 268] | < 200
